Measured values: patent US10039761B2, “Co-crystals and pharmaceutical compositions comprising the same” (Vertex Pharmaceuticals Incorporated, priority 2013, dated 2018)
pIC50, pKi: −log10 of the molar value. Read-outs that look alike come from different tables or passages of the source. One block for each compound: values may come before it.

How the values were obtained:
[1] = test system: ESO26 (GEJ) cancer cell line; test: Combination with genotoxic agents, viability (Mixtures analysis); assay type: cell-based; details: single agent IC50 on which the mixtures were based
Procedure: (§1) The cell-based experiments and assays were performed with either molecule but not always with both. Compounds (1) and (2) were generally very similar in those assays and experiments. Analysis of the combination experiments was performed using two methods: the Bliss Additivity model and the Mixtures Blend method to determine the degree of synergy, additivity, or antagonism. In the Bliss method, a matrix of Bliss scores was generated for each cell line and treatment, and a sum of the Bliss values over the range of combination concentrations tested was calculated. […] Larger average Bliss values indicate greater confidence in reporting synergy, and smaller scores indicate greater confidence in reporting antagonism. In the Mixtures Blend method combinants were added in a range of optimal ratios using design of experiment (DOE) software (DX-8 from STAT-EASE); the cells were irradiated with 2 Gy as required. Synergy was determined using statistical analysis of the data (ANOVA) to indicate linear (additivity) or statistically significant (p<0.1) non-linear (antagonism or synergy) mixes of the combinants.

HCC-1937 = test: Doxorubicin combination in triple negative breast cancer cells; assay type: cell-based; details: Homo sapiens, BRCA mutant
Procedure: as §1

MDA-MB-468 = test: as above; assay type: cell-based; details: Homo sapiens, BRCA wild-type
Procedure: as §1

HCC-1395 = test: as above; assay type: cell-based; details: Homo sapiens, HCC1395, read-out: Doxorubicin IC50 (μM); plating density 5000; BRCA mutant
Procedure: as §1

MDA-MB-436 = test: as above; assay type: cell-based; details: Homo sapiens, BRCA mutant
Procedure: as §1

HCC-1599 = test: as above; assay type: cell-based; details: Homo sapiens, HCC1599, read-out: Doxorubicin IC50 (μM); plating density unknown; BRCA mutant
Procedure: as §1

[2] = Two stage dissolution (FaSSGF then FaSSIF); assay type: physicochemical; details: 37° C., compared with free form
Procedure: Two stage dissolution experiments were performed at least in duplicate. Fasted state simulated gastric fluid (FaSSGF) was equilibrated for 30 minutes under stirring to 37° C. in a 100 ml clear class vial using a water bath consisting of a temperature controlled jacketed vessel. The compound 1:adipic acid co-crystal and compound 2:adipic acid co-crystal was added and the suspension was stirred at about 130 rpm and 37° C., respectively. Aliquots (0.5 ml) were taken at 5, 15, 30, and 60 minutes. Solids were separated by filter centrifugation using centrifuge filter units with a 0.45 μm membrane and spinning at 5000 rpm for 5 minutes on an Eppendorff Model 5418 centrifuge. The pH of the dissolution samples was measured after sampling at 15 and 60 minute time points. The supernatants of the filtered samples were 10 fold diluted of with diluent for HPLC Analysis. At the 65 minute timepoint fasted state simulated intestinal fluid FaSSIF equilibrated at 37° C. was added to the suspension and the suspension was continued to stir at 130 rpm. Aliquots (0.5 ml) were taken at 75, 90, 120 and 180 minute timepoints. Solids were separated by filter centrifugation using centrifuge filter units with a 0.45 μm membrane and spinning at 5000 rpm for 5 minutes on an Eppendorff Model 5418 centrifuge. The pH of the dissolution samples was measured after sampling at 75, 90 and 180 minute time points. […]

DNA-PK = DNA-PK (Homo sapiens, UniProt P78527); test: DNA-PK kinase inhibition radiometric assay; assay type: biochemical; details: 100 μM ATP; competitive tight-binding inhibition fit
Procedure: Accordingly, compounds of the invention were dissolved in DMSO to make 10 mM initial stock solutions. Serial dilutions in DMSO were then made to obtain the final solutions for the assay.

SMILES: O=c1[nH]cc(F)c(=O)[nH]1 [Compound 5-FU, fluorouracil]
pIC50 [1]: 4.70

IC50 (HCC-1937; HCC1937, read-out: Doxorubicin IC50 (μM), plating density 5000): 0.2 µM | IC50 (HCC-1937; HCC1937, read-out: Doxorubicin IC50 (μM), plating density 20000): 0.6 µM | IC50 (MDA-MB-468; MDA-MB-468, read-out: Doxorubicin IC50 (μM), plating density 5000): 0.02 µM | IC50 (MDA-MB-468; MDA-MB-468, read-out: Doxorubicin IC50 (μM), plating density 20000): 0.04 µM | IC50 (HCC-1395): 0.5 µM | IC50 (MDA-MB-436; MDA-MB-436, read-out: Doxorubicin IC50 (μM), plating density 5000): 0.7 µM | IC50 (MDA-MB-436; MDA-MB-436, read-out: Doxorubicin IC50 (μM), plating density 20000): 0.3 µM | IC50 (HCC-1599): 0.2 µM
SMILES: COc1cccc2c1C(=O)c1c(O)c3c(c(O)c1C2=O)C[C@@](O)(C(=O)CO)C[C@@H]3O[C@H]1C[C@H](N)[C@H](O)[C@H](C)O1 [Doxorubicin, reference compound]

pKi (DNA-PK): ~8.70
SMILES: [2H]c1nc(C)nc([2H])c1-c1cc(NC[C@@H](C)c2cccc3c(C(=O)NC)ccnc23)ncn1 [adipic acid co-crystal of Compound (2)]
two stage dissolution concentrations [2]: higher Compound 1 and Compound 2 concentrations than Compound 1 or Compound 2 free form

SMILES: N.N.O=C([O-])C1(C(=O)[O-])CCC1.[Pt+2] [carboplatin]
pIC50 [1]: 4.30

SMILES: N.N.[Cl][Pt][Cl] [cisplatin]
pIC50 [1]: 5.82

SMILES: COc1cc([C@@H]2c3cc4c(cc3[C@@H](O[C@@H]3O[C@@H]5CO[C@@H](C)O[C@H]5[C@H](O)[C@H]3O)[C@H]3COC(=O)[C@H]23)OCO4)cc(OC)c1O [etoposide]
pIC50 [1]: 6.22

SMILES: CC(=O)O[C@H]1C(=O)[C@@]2(C)[C@H]([C@H](OC(=O)c3ccccc3)[C@]3(O)C[C@H](OC(=O)[C@H](O)[C@@H](NC(=O)c4ccccc4)c4ccccc4)C(C)=C1C3(C)C)[C@]1(OC(C)=O)CO[C@@H]1C[C@@H]2O [paclitaxel]
pIC50 [1]: 8.52
